Structures are written as SMILES. “And” between values parts separate entries of the source, which are not always exact repeats. Identical values can stand only once. Counter-ions that a name gives are not always drawn. The source made the active and inactive calls. Bounds are passed on as bounds.

Experiment [1] is described as follows: inhibitors of triacylglycerol buildup in H9c2 cells, dose response, cell-based, H9c2 rat cardiomyoblasts, Nile Red fluorescence, primary readout (AID 743161). Format: functional.
The target in experiment [2] is Sphingosine 1-phosphate receptor 2 (Homo sapiens, UniProt O95136). In words: Dose Response Cell Based Assay for Antagonists of the S1P2 Receptor. [Related pubchem assays: 856, 736 ]. Format: functional.
Sphingosine 1-phosphate receptor 2, sequence (O95136 whole entry): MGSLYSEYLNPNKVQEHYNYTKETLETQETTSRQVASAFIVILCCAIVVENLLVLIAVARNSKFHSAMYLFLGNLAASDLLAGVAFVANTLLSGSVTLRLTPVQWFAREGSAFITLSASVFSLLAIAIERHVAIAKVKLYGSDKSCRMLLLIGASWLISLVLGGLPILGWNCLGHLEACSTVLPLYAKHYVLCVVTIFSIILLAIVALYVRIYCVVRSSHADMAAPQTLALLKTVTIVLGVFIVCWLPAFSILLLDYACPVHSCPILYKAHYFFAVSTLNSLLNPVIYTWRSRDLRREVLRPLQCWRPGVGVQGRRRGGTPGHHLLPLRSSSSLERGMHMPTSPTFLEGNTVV
Experiment [3] concerns the target T1, Heat shock factor protein 1 (Mus musculus, UniProt P38532).
T1 sequence (P38532 whole entry): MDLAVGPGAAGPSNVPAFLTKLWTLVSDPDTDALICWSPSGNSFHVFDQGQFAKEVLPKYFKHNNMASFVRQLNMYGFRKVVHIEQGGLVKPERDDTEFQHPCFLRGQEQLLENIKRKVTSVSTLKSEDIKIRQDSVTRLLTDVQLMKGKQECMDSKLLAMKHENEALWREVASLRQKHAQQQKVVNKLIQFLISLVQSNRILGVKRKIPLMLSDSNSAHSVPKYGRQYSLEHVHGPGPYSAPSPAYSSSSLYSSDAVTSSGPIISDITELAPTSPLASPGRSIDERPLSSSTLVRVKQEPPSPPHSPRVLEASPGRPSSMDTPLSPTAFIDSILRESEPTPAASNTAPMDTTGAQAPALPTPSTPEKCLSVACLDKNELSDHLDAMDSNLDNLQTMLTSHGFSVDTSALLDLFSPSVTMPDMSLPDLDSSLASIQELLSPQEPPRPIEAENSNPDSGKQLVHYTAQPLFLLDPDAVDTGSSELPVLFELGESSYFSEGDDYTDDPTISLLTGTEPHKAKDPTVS
In words: inhibition of MG132-induced HSE-luciferase signal, confirmation, cell-based, NIH3T3, luminescence, dose retest (AID 2382).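 Note: NIH3T3 fibroblasts with HSF1-driven luciferase reporter stressed by proteasome inhibitor MG132; luminescence from HSF1-driven luciferase expression after 8 hours of MG132 stress.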 Format: functional.

The nature of experiment [4]: Vero cell cytotoxicity, dose response, cytotoxicity control for Vif-APOBEC3G degradation inhibitor project, Vero cells (AID 1117358). Format: functional. The note with it: Human immunodeficiency virus 1, Vero.
The subject of experiment [5] is Streptococcus sp. 'group A'. In words: growth inhibition of control SK(-) GAS strain, dose response, counter-screen for streptokinase expression inhibitor project, luminescence, kanamycin, BacTiterGlo, confirmation (AID 1900). Type of experiment: functional, organism-based. Background: A counterscreen serves to expose hits that act by an unwanted route or on another target.

In a further experiment the target is T2, Streptokinase A (Streptococcus pyogenes serotype M1, UniProt P10520).
T2 sequence (P10520 whole entry): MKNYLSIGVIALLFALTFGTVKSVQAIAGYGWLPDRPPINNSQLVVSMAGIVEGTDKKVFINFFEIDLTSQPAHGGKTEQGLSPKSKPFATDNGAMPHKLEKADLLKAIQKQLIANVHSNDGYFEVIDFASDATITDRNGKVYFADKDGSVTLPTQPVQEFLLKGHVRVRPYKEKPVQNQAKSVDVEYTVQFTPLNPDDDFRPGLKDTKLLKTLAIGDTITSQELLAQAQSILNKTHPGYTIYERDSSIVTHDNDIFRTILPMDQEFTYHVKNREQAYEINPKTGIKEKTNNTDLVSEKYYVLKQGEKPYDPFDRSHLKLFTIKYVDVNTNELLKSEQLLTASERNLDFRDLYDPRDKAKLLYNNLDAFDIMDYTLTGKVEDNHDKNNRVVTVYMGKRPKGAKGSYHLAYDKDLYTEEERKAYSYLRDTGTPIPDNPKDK
In words: S. pyogenes streptokinase expression inhibitors, potency, dose response, plasminogen activation absorbance, OD405 (AID 1914).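 Note: secreted streptokinase activity via plasminogen activation per viability signal from cell pellet.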 Format: functional, Streptococcus pyogenes M1 GAS.

The next experiment has as its system Streptococcus. In words: Group A Streptococcus viability loss, dose response, counter-screen for streptokinase expression inhibitor project, luminescence, BacTiterGlo (AID 1915).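 Note: potency for reduction of bacterial viability or growth.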 Type of experiment: functional, organism-based.
The nature of experiment [6]: half-maximal inhibitory concentration for glucagon-like peptide-1 release, STC-1 cell line, dose-response (AID 1117345). Format: functional, cell-based.
A short description of experiment [7]: Glucagon-like peptide 1 release potency, NCI-H716 cell line, dose-response, half-maximal inhibitory concentration (AID 1117344). Format: functional, cell-based.

For `COCCN1Cc2cccc(C(=O)NCc3cccc(N(C)C)c3)c2C1=O`, the IC50 in [1] was > 50 µM (active).
For the molecule `O=C(Nc1ccc(F)cc1)c1sc2cc(C(F)(F)F)cnc2c1-c1cccs1`, the IC50 in [2] is 2.73 µM (active) and 2.06 µM (active).
Regarding `O=C(NC(=S)N1CCN(c2c(Cl)cccc2[N+](=O)[O-])CC1)c1cccs1`, the EC50 in experiment [3] is > 195 µM (not active); in [5], 4.51 µM (active); at Streptokinase A it was > 150 µM (not active); in the experiment with Streptococcus, 10.2 µM (active). In addition, the CC50 in [4] is > 40 µM (active).
`CCN(CC)CCOC(=O)C(Cc1cccc2ccccc12)CC1CCCO1` (centres undefined) [NAFRONYL OXALATE]: the IC50 in experiment [6] and in [7] was > 40 µM (inactive) in each case.

As usually defined, the IC50 is the point on the concentration scale where inhibition reaches its midpoint. For orientation: EC50 means the concentration that produces a half-maximal response. The term CC50 denotes the concentration that lowers cell viability or growth by half.

The values above are taken from ChEMBL document CHEMBL1201862, “PubChem BioAssay data set” (2004).
